According to ChEMBL document CHEMBL5465560, “Selectivity Literature for EUbOPEN Chemogenomic Library” (2024):
Values belong to the compound of their own block, whether it stands above or below them.

Key:
[1] = target: Cyclin-dependent kinase 1/cyclin B (Homo sapiens) (UniProt P06493+P14635+Q8WWL7+O95067); test: Selectivity interaction (Millipore kinase profiler) EUB0000124b CDK1; format: protein-complex assay; settings: at 10 µM
[2] = target: T1, Serine/threonine-protein kinase 3 (Homo sapiens) (UniProt Q13188); test: Selectivity interaction (KinomeScan (DiscoverX)) EUB0000607a STK3; settings: at 10 µM
T1 sequence (whole entry): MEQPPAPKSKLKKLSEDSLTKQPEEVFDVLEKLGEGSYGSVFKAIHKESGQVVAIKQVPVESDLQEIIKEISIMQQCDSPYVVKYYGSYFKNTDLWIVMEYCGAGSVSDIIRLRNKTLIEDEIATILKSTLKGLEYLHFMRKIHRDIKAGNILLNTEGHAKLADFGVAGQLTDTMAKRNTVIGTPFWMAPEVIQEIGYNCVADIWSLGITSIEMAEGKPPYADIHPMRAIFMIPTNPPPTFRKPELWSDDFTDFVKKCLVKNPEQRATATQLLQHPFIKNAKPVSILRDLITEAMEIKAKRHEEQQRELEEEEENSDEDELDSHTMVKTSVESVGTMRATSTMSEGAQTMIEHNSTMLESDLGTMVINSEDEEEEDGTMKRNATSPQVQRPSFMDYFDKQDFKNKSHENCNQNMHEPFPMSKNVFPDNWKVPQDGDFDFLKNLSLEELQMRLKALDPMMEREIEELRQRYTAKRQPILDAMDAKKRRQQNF

[3] = target: Protein kinase C gamma type (Homo sapiens) (UniProt P05129); test: Selectivity interaction (SelectScreen profiling (Invitrogen)) EUB0000607a PRKCG; settings: at 2 µM
[4] = target: Dual specificity mitogen-activated protein kinase kinase 1 (Homo sapiens, UniProt Q02750); test: Selectivity interaction (ActivX KiNativ screen (ex vivo kinase selectivity in human PBMCs)) EUB0001619a MAP2K1; format: cell-based; settings: PBMC, at 1 µM
Sequence of Dual specificity mitogen-activated protein kinase kinase 1 (Q02750 whole entry): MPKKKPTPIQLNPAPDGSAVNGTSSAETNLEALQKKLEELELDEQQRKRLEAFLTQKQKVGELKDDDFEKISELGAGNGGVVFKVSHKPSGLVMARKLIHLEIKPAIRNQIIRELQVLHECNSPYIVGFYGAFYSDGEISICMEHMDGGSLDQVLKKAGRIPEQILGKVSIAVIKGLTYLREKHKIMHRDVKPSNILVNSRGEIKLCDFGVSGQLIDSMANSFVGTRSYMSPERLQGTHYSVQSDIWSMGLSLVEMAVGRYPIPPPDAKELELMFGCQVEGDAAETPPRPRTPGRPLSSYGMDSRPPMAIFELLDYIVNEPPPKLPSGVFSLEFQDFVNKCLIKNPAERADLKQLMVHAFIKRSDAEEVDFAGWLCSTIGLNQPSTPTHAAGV

[5] = target: Macrophage-stimulating protein receptor (Homo sapiens, UniProt Q04912); test: Selectivity interaction (KinomeScan (DiscoverX)) EUB0000595a MST1R; settings: at 10 µM
Sequence of Macrophage-stimulating protein receptor (Q04912 25-304 limits assumed): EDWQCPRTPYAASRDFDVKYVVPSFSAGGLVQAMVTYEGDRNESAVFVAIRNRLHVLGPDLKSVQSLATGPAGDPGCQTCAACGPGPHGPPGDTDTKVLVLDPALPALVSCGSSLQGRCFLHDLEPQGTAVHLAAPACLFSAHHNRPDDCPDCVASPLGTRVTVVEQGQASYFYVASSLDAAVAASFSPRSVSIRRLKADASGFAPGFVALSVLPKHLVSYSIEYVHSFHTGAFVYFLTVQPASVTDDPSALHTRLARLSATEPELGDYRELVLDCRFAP
Sequence of Macrophage-stimulating protein receptor (Q04912 310-1400 limits assumed): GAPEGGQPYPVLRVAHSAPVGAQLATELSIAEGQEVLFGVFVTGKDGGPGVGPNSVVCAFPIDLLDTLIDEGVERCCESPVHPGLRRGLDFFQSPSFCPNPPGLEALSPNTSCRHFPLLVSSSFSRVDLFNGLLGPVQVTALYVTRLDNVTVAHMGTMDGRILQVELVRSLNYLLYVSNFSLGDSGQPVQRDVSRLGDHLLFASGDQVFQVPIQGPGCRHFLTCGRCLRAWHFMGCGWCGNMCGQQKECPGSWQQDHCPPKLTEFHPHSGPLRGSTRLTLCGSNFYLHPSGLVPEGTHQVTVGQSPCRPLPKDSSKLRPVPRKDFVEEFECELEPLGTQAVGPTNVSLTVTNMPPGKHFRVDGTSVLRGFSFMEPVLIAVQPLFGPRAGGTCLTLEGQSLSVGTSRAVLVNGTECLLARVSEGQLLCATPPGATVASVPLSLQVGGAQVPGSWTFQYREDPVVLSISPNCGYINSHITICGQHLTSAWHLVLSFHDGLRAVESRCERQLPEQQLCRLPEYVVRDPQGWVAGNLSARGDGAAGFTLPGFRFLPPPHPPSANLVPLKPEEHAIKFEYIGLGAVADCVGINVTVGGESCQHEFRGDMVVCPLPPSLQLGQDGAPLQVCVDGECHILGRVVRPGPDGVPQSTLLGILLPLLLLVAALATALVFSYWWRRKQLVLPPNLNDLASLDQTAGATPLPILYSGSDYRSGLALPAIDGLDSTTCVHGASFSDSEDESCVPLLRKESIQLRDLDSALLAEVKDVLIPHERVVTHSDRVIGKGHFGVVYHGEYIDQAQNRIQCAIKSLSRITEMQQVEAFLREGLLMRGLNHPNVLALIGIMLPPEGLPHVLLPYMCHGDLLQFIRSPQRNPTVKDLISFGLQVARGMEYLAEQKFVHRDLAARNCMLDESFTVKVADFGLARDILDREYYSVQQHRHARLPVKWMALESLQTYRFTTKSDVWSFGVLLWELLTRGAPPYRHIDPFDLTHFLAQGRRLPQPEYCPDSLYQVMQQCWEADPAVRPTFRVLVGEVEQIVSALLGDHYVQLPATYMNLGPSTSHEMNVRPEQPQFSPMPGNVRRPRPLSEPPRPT

[6] = target: Cyclin-dependent kinase 5/CDK5 activator 1 (Homo sapiens) (UniProt Q00535+Q15078); test: Selectivity interaction (Kinase panel (Invitrogen)) EUB0000639a CDK5; format: protein-complex assay; settings: at 200 nM
Sequence of Cyclin-dependent kinase 5/CDK5 activator 1 (Homo sapiens) (Q00535 whole entry): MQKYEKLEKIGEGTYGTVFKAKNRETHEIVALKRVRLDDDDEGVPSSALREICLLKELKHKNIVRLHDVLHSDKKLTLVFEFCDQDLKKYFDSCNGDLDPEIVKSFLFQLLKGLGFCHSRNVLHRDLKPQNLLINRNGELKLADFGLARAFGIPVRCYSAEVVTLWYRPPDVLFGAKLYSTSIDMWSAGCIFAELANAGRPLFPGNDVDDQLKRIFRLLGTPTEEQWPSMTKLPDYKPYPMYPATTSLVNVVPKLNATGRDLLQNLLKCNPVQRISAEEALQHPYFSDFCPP
Sequence of Cyclin-dependent kinase 5/CDK5 activator 1 (Homo sapiens) (Q15078 99-307 partner limits assumed): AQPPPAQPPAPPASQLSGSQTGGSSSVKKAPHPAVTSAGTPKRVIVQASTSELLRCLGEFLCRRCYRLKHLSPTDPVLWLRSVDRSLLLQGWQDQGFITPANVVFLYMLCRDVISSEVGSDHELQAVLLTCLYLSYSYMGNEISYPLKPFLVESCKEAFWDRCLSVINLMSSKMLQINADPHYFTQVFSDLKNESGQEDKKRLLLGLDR

[7] = target: T2, Protein kinase C iota type (Homo sapiens) (UniProt P41743); test: Selectivity interaction (ActivX KiNativ screen (kinase selectivity in THP-1 cell lysates)) EUB0000639a PRKCI; format: subcellular; settings: lysate
T2 sequence (whole entry): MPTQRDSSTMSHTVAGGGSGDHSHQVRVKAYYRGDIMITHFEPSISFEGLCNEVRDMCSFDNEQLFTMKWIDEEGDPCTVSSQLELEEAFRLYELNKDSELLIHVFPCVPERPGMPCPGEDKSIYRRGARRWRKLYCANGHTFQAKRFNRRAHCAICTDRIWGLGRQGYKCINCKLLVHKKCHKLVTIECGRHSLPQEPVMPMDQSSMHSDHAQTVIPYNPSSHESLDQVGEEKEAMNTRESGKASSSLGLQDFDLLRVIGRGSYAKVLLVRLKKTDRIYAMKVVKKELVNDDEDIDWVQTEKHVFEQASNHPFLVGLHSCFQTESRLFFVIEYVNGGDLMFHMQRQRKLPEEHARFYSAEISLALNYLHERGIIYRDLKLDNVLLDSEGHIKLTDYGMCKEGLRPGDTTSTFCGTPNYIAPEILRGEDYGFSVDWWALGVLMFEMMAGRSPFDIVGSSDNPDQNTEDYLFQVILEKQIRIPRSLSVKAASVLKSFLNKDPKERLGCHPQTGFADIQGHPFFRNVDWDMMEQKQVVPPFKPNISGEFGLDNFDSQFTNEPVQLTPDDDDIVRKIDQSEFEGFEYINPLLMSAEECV

[8] = target: T3, Tyrosine-protein kinase JAK3 (Homo sapiens, UniProt P52333)
T3 sequence (P52333 whole entry): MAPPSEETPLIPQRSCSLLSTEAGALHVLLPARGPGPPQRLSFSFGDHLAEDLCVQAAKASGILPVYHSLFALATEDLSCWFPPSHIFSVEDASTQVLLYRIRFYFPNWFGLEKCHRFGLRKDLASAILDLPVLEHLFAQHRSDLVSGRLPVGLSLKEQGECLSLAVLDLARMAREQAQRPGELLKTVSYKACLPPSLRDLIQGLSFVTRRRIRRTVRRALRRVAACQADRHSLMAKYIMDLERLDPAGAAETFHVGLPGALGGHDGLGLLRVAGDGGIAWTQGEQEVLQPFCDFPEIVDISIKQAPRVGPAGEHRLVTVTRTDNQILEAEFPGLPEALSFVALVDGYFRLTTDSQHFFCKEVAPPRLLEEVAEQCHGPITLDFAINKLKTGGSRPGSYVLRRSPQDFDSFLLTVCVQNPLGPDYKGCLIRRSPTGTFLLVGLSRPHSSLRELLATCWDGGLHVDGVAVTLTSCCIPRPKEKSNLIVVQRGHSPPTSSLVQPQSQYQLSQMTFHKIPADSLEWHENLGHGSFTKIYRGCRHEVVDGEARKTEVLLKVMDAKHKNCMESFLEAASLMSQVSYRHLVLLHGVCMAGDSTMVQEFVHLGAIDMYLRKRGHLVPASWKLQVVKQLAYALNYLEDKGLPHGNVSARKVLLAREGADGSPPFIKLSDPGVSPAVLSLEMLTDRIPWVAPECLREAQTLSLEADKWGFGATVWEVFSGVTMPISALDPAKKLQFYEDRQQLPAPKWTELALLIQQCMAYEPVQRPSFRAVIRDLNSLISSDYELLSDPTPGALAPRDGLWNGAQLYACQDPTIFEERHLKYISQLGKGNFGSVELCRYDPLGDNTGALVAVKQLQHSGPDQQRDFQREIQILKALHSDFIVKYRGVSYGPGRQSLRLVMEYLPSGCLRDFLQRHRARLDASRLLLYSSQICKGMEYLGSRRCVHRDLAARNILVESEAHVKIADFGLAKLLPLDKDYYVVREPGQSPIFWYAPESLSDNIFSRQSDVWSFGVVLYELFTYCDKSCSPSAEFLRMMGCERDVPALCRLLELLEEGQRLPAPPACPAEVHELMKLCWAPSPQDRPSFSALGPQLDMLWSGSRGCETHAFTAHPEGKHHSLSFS

[9] = target: Protein-tyrosine kinase 6 (Homo sapiens, UniProt Q13882); test: Selectivity interaction (KinomeScan (DiscoverX)) EUB0000229b PTK6; settings: at 10 µM
Sequence of Protein-tyrosine kinase 6 (Q13882 whole entry, looked up): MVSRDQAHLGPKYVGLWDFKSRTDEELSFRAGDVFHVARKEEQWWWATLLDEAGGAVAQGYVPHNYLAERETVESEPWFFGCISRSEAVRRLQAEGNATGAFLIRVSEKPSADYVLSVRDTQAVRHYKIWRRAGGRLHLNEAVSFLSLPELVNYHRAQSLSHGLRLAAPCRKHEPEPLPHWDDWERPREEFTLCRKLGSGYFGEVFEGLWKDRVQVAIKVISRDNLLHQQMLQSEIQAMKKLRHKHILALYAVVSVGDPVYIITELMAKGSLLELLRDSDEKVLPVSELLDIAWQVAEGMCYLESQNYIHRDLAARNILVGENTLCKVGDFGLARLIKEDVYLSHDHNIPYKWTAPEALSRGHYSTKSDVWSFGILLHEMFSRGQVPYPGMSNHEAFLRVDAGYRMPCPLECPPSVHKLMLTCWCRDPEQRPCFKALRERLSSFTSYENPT

[10] = target: Beta-2 adrenergic receptor (Homo sapiens, UniProt P07550); test: Selectivity interaction (Panel of kinases, GPCRs, ion channels and transporters (enzymatic assay)) EUB0000266bCl ADRB2
Sequence of Beta-2 adrenergic receptor (P07550 whole entry, looked up): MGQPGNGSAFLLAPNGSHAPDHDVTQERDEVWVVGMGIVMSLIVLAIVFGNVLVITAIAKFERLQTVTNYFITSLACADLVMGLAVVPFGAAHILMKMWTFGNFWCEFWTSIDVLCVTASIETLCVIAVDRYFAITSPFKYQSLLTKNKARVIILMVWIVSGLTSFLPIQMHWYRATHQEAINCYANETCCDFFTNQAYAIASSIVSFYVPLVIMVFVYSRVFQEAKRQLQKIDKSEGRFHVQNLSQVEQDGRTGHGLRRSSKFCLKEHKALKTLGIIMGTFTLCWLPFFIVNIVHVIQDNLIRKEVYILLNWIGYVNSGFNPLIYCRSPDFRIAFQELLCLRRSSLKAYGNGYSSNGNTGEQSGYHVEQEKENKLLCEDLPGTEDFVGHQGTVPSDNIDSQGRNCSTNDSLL

% of inhibition [6]: 4.16%
% of inhibition ([7]; at 0.01 µM): 8.5%
% of inhibition ([7]; at 0.04 µM): -2.3%
% of inhibition ([7]; at 0.2 µM): -7.6%
% of inhibition ([7]; at 1 µM): 6.9%
% of inhibition ([7]; at 5 µM): -26.2%
Structure (SMILES): CC[C@@H]1[C@H](F)C(=O)N[C@@H]1COc1nccc2cc(C(N)=O)c(OC)cc12 [ZIMLOVISERTIB]

IC50 [8]: > 10 µM
Structure (SMILES): CCc1cccc(CC)c1NC(=O)c1nn(C)c2c1CCc1cnc(Nc3ccc(C(=O)NC4CCN(C)CC4)cc3OC(F)(F)F)nc1-2

pXC50 [10]: < 4.5 M
Structure (SMILES): CCn1c(-c2nc3cc(C(=O)N4CCCC(N)C4)ccc3n2C)cc2ccccc21 (centres undefined)

Continued, compound first:

Structure (SMILES): CC(=O)Nc1cccc(-n2c(=O)n(C3CC3)c(=O)c3c(Nc4ccc(I)cc4F)n(C)c(=O)c(C)c32)c1
% of control [1]: 104%

Structure (SMILES): CNC(=O)Nc1ccc(-c2nc(N3CC4CCC(C3)O4)c3cnn(C4CCC5(CC4)OCCO5)c3n2)cc1
% of control [2]: 97%
% of inhibition [3]: 11%

Structure (SMILES): N#Cc1cccc(-c2c[nH]c3ncnc(N4CCOCC4)c23)c1
% of inhibition [4]: 14%

Structure (SMILES): COCC(=O)NC/C=C/c1ccc2ncnc(Nc3ccc(Oc4ccc(C)nc4)c(C)c3)c2c1 [CP-724714]
% of control [5]: 100%

Structure (SMILES): COc1cc(N(C)c2ccnc3ccc(C(F)(F)F)cc23)cc(OC)c1OC
% binding [9]: 94%
